In the assay the target is T1, mu-opioid receptor (MOR) (Homo sapiens, UniProt P35372).
T1 construct: expressed in transfected cells; host or cells: CHO-K1
In words: functional cellular cAMP assay on CHO-K1 cell lines expressing MOR, co-administration with orthosteric ligand. It is filed as cell-based. The following applies: for Allosteric activity level (%): 0% = reference agonist at EC20, 100% = maximum activity of reference agonist; for EC50: logEC50(M), log of molar EC50, CHO-K1 cells expressing MOR, cAMP. As for the experimental part: The properties and functionality of these peptidosteroids were validated using standard experimental methods. To evaluate their allosteric modulation capabilities, functional cellular assays were conducted on CHO-K1 cell lines expressing MOR. These assays utilized fluorescent techniques to measure intracellular cAMP levels as a marker of receptor activity.
The peptidosteroids were tested in co-administration with orthosteric ligands, such as morphine and DAMGO, to assess their ability to influence receptor signaling.
The table below provides additional data on the binding motifs (Candidates 1 and 2) and the resulting peptidomimetics (Candidate 3), offering a detailed comparison of their activity. The percentage values are normalized such that 0% corresponds to the activity of the reference agonist at EC20, while 100% represents the maximum activity of the reference agonist.

No end group written: not given here.

T1 sequence (P35372 whole entry): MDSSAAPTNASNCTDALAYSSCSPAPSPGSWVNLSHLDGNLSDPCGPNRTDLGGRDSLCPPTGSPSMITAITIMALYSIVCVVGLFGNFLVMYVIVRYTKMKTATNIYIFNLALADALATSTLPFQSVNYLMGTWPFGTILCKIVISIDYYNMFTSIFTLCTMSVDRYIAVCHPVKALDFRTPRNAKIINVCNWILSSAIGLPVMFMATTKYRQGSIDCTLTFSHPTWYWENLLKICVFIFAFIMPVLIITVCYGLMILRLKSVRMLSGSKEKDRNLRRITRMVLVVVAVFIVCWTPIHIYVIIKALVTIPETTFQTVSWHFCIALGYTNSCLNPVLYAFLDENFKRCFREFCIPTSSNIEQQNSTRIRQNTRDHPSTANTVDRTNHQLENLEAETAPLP

Regarding YPWFYL [sequence-4, YPWFYL], the “Allosteric activity level (%)” value (agonist present DAMGO) is recorded as 24.64%. Further, where the note is “agonist present DAMGO (EC20)”, the EC50 is 1.35e-06 M.
Turning to “VCAVGLWGNWLVM [sequence-1, VCAVGLWGNWLVM]”, the “Allosteric activity level (%)” value reads like this: (agonist present DAMGO) 23.64%; (agonist present morphine) 21.67%. Further, the EC50 is, setting by setting: (agonist present DAMGO (EC20)) 4.57e-06 M; (agonist present morphine) 1e-06 M.

For the origin of these results see US20250215051A1, “Transmembrane Allosteric Short Peptides Modulating Human Mu-Opioid Receptor for Analgesic Effects and Covalent Steroid Modifications of Transmembrane Allosteric Peptides for Enhanced Mu-Opioid Receptor Interaction in Chronic Pain Therapies” (Mu42 SPOLKA Z OGRANICZONA ODPOWIEDZIALNOSCIA, priority 2023, published 2025).
